Results from patent US20260209214A1, “LSD1 MODULATORS” (RECURSION PHARMACEUTICALS, INC., priority 2022, published 2026).

biological target: Recombinant human LSD1 (Homo sapiens, UniProt O60341); assay: LSD1 inhibition assay (HTRF LSD1 Histone H3K4 mono-demethylation assay, me1->me0); assay type: biochemical; conditions: 20 nM recombinant human LSD1, 95 nM H3K4(me1) biotinylated peptide, 15 min preincubation, 60 min at 25° C., read-out: LSD1 inhibition IC50 (nM range)
Procedure, shortened: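 Recombinant human LSD1 (20 nM) pre-incubated 15 min with 10 semi-log compound doses, then 95 nM biotinylated H3K4me1 peptide for 60 min at 25 °C in pH 8.5 Tris/NaCl buffer with 10 μM FAD, 1 mM DTT. HTRF me0-antibody read after 90 min; IC50 from 4-parameter fit.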

`N#Cc1ccc(-c2cccc(CN3[C@H]4CC[C@@H]3[C@H](N)C4)c2-c2ccns2)cc1` (single isomer, unassigned) [Example 187] and `N#Cc1ccc(-c2cccc(CN3[C@@H]4CC[C@H]3[C@@H](N)C4)c2-c2ccns2)cc1` (single isomer, unassigned) [Example 204] fall in the same range of IC50: 10 to 25 nM for the first, 10 to 25 nM for the second.

`CN[C@@H]1C[C@@H]2CC[C@H]1N2Cc1cccc(-c2ccc(C#N)c(F)c2)c1-c1ccns1` (single isomer, unassigned) [Example 190] and `CC1(C)CN(Cc2cccc(-c3ccc(C#N)c(F)c3)c2-c2ccns2)C[C@H]1N` (single isomer, unassigned) [Example 194] cannot be ordered by IC50: less than 10 nM for the first, less than 10 nM for the second.

`CC1(C)CN(Cc2cccc(-c3ccc(C#N)c(F)c3)c2-c2ccns2)C[C@@H]1N` (single isomer, unassigned) [Example 197] and `N#Cc1ccc(-c2cccc(C[C@H]3CNCCO3)c2-c2ccns2)cc1F` [Example 4, 3-fluoro-3′-{[(2S)-morpholin-2-yl]methyl}-2′-(1,2-thiazol-5-yl)-[1,1′-biphenyl]-4-carbonitrile] cannot be ordered by IC50: less than 10 nM for the first, less than 10 nM for the second.

First: CCN[C@@H]1C[C@@H]2CC[C@H]1N2Cc1cccc(-c2ccc(C#N)c(F)c2)c1C1CC1 (single isomer, unassigned) [Example 201]
Second: CC(C)N[C@@H]1C[C@@H]2CC[C@H]1N2Cc1cccc(-c2ccc(C#N)c(F)c2)c1C1CC1 (single isomer, unassigned) [Example 248]
The IC50 of the first is lower: 10 to 25 nM for the first, 100 to 1000 nM for the second. The first is the more potent here.

`CCCc1c(CN2[C@H]3CC[C@@H]2[C@H](N)C3)cccc1-c1ccc(C#N)c(F)c1` (single isomer, unassigned) [Example 212] and `N#Cc1ccc(-c2cccc(CN3[C@H]4CC[C@@H]3[C@H](N)C4)c2CC2CC2)cc1F` (single isomer, unassigned) [Example 221] fall in the same range of IC50: 25 to 100 nM for the first, 25 to 100 nM for the second.

First: N#Cc1ccc(-c2cc(F)cc(CN3[C@H]4CC[C@@H]3[C@H](N)C4)c2C2CC2)cc1F (single isomer, unassigned) [Example 223]
Second: N#Cc1ccc(-c2cccc(CN3[C@@H]4CC[C@H]3[C@@H](N)C4)c2C2CC2)cc1F (single isomer, unassigned) [Example 261]
The IC50 of the first is lower: 10 to 25 nM for the first, 100 to 1000 nM for the second.

`N#Cc1ccc(-c2cccc(CC3CNCCO3)c2-c2ocnc2F)cc1` (stereo in doubt) [Example 2, 2′-(4-fluoro-1,3-oxazol-5-yl)-3′-{[(2R)-morpholin-2-yl]methyl}-[1,1′-biphenyl]-4-carbonitrile] and `N#Cc1ccc(-c2cccc(C[C@@H]3CNCCO3)c2-c2ocnc2F)cc1` [Example 3, 2′-(4-fluoro-1,3-oxazol-5-yl)-3′-{[(2R)-orpholin-2-yl]methyl}-[1,1′-biphenyl]-4-carbonitrile] fall in the same range of IC50: 10 to 25 nM for the first, 10 to 25 nM for the second.

First: CN1C[C@@H]2C[C@H]1CN2Cc1cc(-c2ccc(C#N)c(F)c2)cc(N2CCCC2)c1 (stereo in doubt) [Example 300, 2-fluoro-4-[3-[[(1S,4S)-5-methyl-2,5-diazabicyclo[2.2.1]heptan-2-yl]methyl]-5-pyrrolidin-1-yl-phenyl]benzonitrile]
Second: N#Cc1ccc(-c2cccc(CN3C[C@H]4C[C@@H](N)C[C@@H]3C4)c2C2CC2)cc1F (stereo in doubt) [Example 318, 3'-{[(1S,3R,5S)-3-amino-6-azabicyclo[3.2.1]octan-6-yl]methyl}-2'-cyclopropyl-3-fluoro-[1,1'-biphenyl]-4-carbonitrile]
The IC50 of the first is higher: 100 to 1000 nM for the first, 25 to 100 nM for the second.

First: Cn1cc2cc(-c3ccc(CC4CNCCO4)cc3-c3ccc(C#N)c(F)c3)ccc2n1 (stereo not drawn) [Compound 58]
Second: N#Cc1ccc(-c2cccc(CC3CNCCO3)c2-c2cccnc2)cc1F (stereo not drawn) [Example 32, 3-fluoro-3′-[(morpholin-2-yl)methyl]-2′-(pyridin-3-yl)-[1,1′-biphenyl]-4-carbonitrile]
The IC50 of the first is higher: 100 to 1000 nM for the first, 25 to 100 nM for the second. The second is the more potent here.

`Cc1cc(CN2CCC3(CCN3C)C2)c(Cl)c(-c2ccc(C#N)c(F)c2)c1` (stereo not drawn) [Compound 240] and `CCC1(O)CCN(c2ccc(CC3CNCCO3)cc2-c2ccc(C#N)c(F)c2)CC1` (stereo not drawn) [Example 33, 2′-(4-ethyl-4-hydroxypiperidin-1-yl)-3-fluoro-5′-[(morpholin-2-yl)methyl]-[1,1′-biphenyl]-4-carbonitrile] fall in the same range of IC50: 25 to 100 nM for the first, 25 to 100 nM for the second.

`N#Cc1ccc(-c2cccc(CC3CNCCO3)c2-c2ccns2)cc1` (stereo not drawn) [Example 1, 3′-[(morpholin-2-yl)methyl]-2′-(1,2-thiazol-5-yl)-[1,1′-biphenyl]-4-carbonitrile] and `N#Cc1ccc(-c2cccc(CC3CNCCO3)c2-c2ccno2)cc1` (stereo not drawn) [Example 12, 3′-[(morpholin-2-yl)methyl]-2′-(1,2-oxazol-5-yl)-[1,1′-biphenyl]-4-carbonitrile] fall in the same range of IC50: 10 to 25 nM for the first, 10 to 25 nM for the second.

`N#Cc1ccc(-c2cccc(CC3CNCCO3)c2C2=CCOC2)cc1F` (stereo not drawn) [Example 10, 2′-(2,5-dihydrofuran-3-yl)-3-fluoro-3′-[(morpholin-2-yl)methyl]-[1,1′-biphenyl]-4-carbonitrile] and `N#Cc1ccc(-c2cccc(CC3CNCCO3)c2-c2ccno2)cc1F` (stereo not drawn) [Example 16, 3-fluoro-3′-[(morpholin-2-yl)methyl]-2′-(1,2-oxazol-5-yl)-[1,1′-biphenyl]-4-carbonitrile] fall in the same range of IC50: 10 to 25 nM for the first, 10 to 25 nM for the second.

First: N#Cc1ccc(-c2cccc(C[C@H]3CNCCO3)c2-c2ocnc2F)cc1F [Example 15, 3-fluoro-2′-(4-fluoro-1,3-oxazol-5-yl)-3′-{[(2S)-morpholin-2-yl]methyl}-[1,1′-biphenyl]-4-carbonitrile]
Second: N#Cc1ccc(-c2cccc(CC3CNCCO3)c2-c2ocnc2F)cc1F (stereo not drawn) [Example 29, 3-fluoro-2′-(4-fluoro-1,3-oxazol-5-yl)-3′-[(morpholin-2-yl)methyl]-[1,1′-biphenyl]-4-carbonitrile]
The IC50 of the first is lower: less than 10 nM for the first, 10 to 25 nM for the second. The first is the more potent here.

`N#Cc1ccc(-c2cc(F)cc(CC3CNCCO3)c2-c2ccns2)cc1F` (stereo not drawn) [Example 18, 3,5′-difluoro-3′-[(morpholin-2-yl)methyl]-2′-(1,2-thiazol-5-yl)-[1,1′-biphenyl]-4-carbonitrile] and `N#Cc1ccc(-c2cc(F)cc(CC3CNCCO3)c2-c2cncs2)cc1F` (stereo not drawn) [Example 19, 3,5′-difluoro-3′-[(morpholin-2-yl)methyl]-2′-(1,3-thiazol-5-yl)-[1,1′-biphenyl]-4-carbonitrile] fall in the same range of IC50: 10 to 25 nM for the first, 10 to 25 nM for the second.

`N#Cc1ccc(-c2cccc(CC3CNCCCO3)c2-c2ccns2)cc1F` (stereo not drawn) [Example 20, 3-fluoro-3′-[(1,4-oxazepan-2-yl)methyl]-2′-(1,2-thiazol-5-yl)-[1,1′-biphenyl]-4-carbonitrile] and `N#Cc1ccc(-c2cccc(C[C@@H]3CNCCO3)c2-c2ccns2)cc1F` [Example 28, 3-fluoro-3′-{[(2R)-morpholin-2-yl]methyl}-2′-(1,2-thiazol-5-yl)-[1,1′-biphenyl]-4-carbonitrile] cannot be ordered by IC50: less than 10 nM for the first, less than 10 nM for the second.

`N#Cc1ccc(-c2cccc(CC3CNCCO3)c2N2CCC2)cc1F` (stereo not drawn) [Example 21, 2′-(azetidin-1-yl)-3-fluoro-3′-[(morpholin-2-yl)methyl]-[1,1′-biphenyl]-4-carbonitrile] and `N#Cc1ccc(-c2cccc(CC3CNCCO3)c2N2CC(F)C2)cc1F` (stereo not drawn) [Example 40, 3-fluoro-2′-(3-fluoroazetidin-1-yl)-3′-[(morpholin-2-yl)methyl]-[1,1′-biphenyl]-4-carbonitrile] fall in the same range of IC50: 100 to 1000 nM for the first, 100 to 1000 nM for the second.

First: Cc1ncsc1-c1c(CC2CNCCO2)cccc1-c1ccc(C#N)c(F)c1 (stereo not drawn) [Example 24, 3-fluoro-2′-(4-methyl-1,3-thiazol-5-yl)-3′-[(morpholin-2-yl)methyl]-[1,1′-biphenyl]-4-carbonitrile]
Second: Cc1nocc1-c1c(CC2CNCCO2)cccc1-c1ccc(C#N)c(F)c1 (stereo not drawn) [Example 35, 3-fluoro-2′-(3-methyl-1,2-oxazol-4-yl)-3′-[(morpholin-2-yl)methyl]-[1,1′-biphenyl]-4-carbonitrile]
The IC50 of the first is lower: 10 to 25 nM for the first, 25 to 100 nM for the second.

`N#Cc1ccc(-c2ccc(F)c(CC3CNCCO3)c2-c2cncs2)cc1F` (stereo not drawn) [Example 25, 3,4′-difluoro-3′-[(morpholin-2-yl)methyl]-2′-(1,3-thiazol-5-yl)-[1,1′-biphenyl]-4-carbonitrile] and `N#Cc1ccc(-c2cccc(CC3CNCCO3)c2-c2ccns2)cc1F` (stereo not drawn) [Example 36, 3-fluoro-3′-[(morpholin-2-yl)methyl]-2′-(1,2-thiazol-5-yl)-[1,1′-biphenyl]-4-carbonitrile] fall in the same range of IC50: 10 to 25 nM for the first, 10 to 25 nM for the second.

Compared with `N#Cc1ccc(-c2cccc(CC3CNCCO3)c2-c2cnco2)cc1` (stereo not drawn) [Example 27, 3′-[(morpholin-2-yl)methyl]-2′-(1,3-oxazol-5-yl)-[1,1′-biphenyl]-4-carbonitrile], `N#Cc1ccc(-c2cccc(CC3CNCCO3)c2-c2cncs2)cc1` (stereo not drawn) [Example 34, 3′-[(morpholin-2-yl)methyl]-2′-(1,3-thiazol-5-yl)-[1,1′-biphenyl]-4-carbonitrile] is lower in IC50: 25 to 100 nM for the first, 10 to 25 nM for the second. The second is the more potent here.

`Cc1ncsc1-c1c(CC2CNCCO2)cccc1-c1ccc(C#N)cc1` (stereo not drawn) [Example 38, 2′-(4-methyl-1,3-thiazol-5-yl)-3′-[(morpholin-2-yl)methyl]-[1,1′-biphenyl]-4-carbonitrile] and `Cc1cc(CC2CNCCO2)c(-c2cncs2)c(-c2ccc(C#N)cc2)c1` (stereo not drawn) [Example 39, 5′-methyl-3′-[(morpholin-2-yl)methyl]-2′-(1,3-thiazol-5-yl)-[1,1′-biphenyl]-4-carbonitrile] fall in the same range of IC50: 10 to 25 nM for the first, 10 to 25 nM for the second.

Compared with `N#Cc1ccc(-c2cccc(CC3CNCCO3)c2C2CC2)cc1F` (stereo not drawn) [Example 42, 2′-cyclopropyl-3-fluoro-3′-[(morpholin-2-yl)methyl]-[1,1′-biphenyl]-4-carbonitrile], `Cc1cc(-c2cccc(CC3CNCCO3)c2-c2ccns2)ccc1C#N` (stereo not drawn) [Example 43, 3-methyl-3′-[(morpholin-2-yl)methyl]-2′-(1,2-thiazol-5-yl)-[1,1′-biphenyl]-4-carbonitrile] is lower in IC50: 100 to 1000 nM for the first, 25 to 100 nM for the second.
